Experiments:
Test in all cases: Microbiological challenge testing in BPW broth, graded subculture counts
Assay type in all cases: cell-based
[1] = tested on: Staphylococcus aureus ATCC 25923; settings: S. aureus
Summary of the method: (§1)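 Bacteria were grown in TSB with 1% dextrose at 35 °C ± 2 °C for at least 96 h, then added to BPW containing 1% dextrose plus test material to give 10^5 to 10^6 CFU/mL at time zero. Broth-alone controls were run in triplicate. Counts were made by spread plating on PCA.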

[2] = tested on: Burkholderia cepacia Wild type; settings: B. cepacia
Summary of the method: as §1

[3] = tested on: Escherichia coli ATCC 25922; settings: E. Coli
Summary of the method: as §1

[4] = tested on: Streptococcus mutans ATCC 35668
Summary of the method: as §1

Aeromonas sp. Wild type = tested on: Aeromonas sp. Wild type
Summary of the method: as §1

[5] = tested on: Aspergillus niger Wild type; settings: A. niger
Summary of the method: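 Wild-type A. niger, grown in TSB with 1% dextrose at 22 °C and on SABD until sporulation, was adjusted to 1.0×10^8 spores/vegetative cells (hemocytometer). It was inoculated in triplicate into BPW with 1% dextrose to give 10^5 to 10^6 CFU/mL at time zero. Counts were by spread plate on SABD, ≥48 h at 22 °C, CFU/mL = count × dilution factor.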

CC1(C)C(O)C(C)(C)C1O (stereo not drawn) [TMCBD, 2,2,4,4-tetramethyl-1,3-cyclobutanediol]
Grade ([1]; 0.5% (wt/vol), 3 day): 4 (1000 to 10,000 colonies countable (thus 10,000 CFU/mL to 100,000 CFU/mL))
Grade ([1]; 0.5% (wt/vol), 14 day): 4 (1000 to 10,000 colonies countable (thus 10,000 CFU/mL to 100,000 CFU/mL))
Grade ([1]; 0.5% (wt/vol), 30 day): 4 (1000 to 10,000 colonies countable (thus 10,000 CFU/mL to 100,000 CFU/mL))
Grade ([1]; 1.25% (wt/vol), 3 day): 4 (1000 to 10,000 colonies countable (thus 10,000 CFU/mL to 100,000 CFU/mL))
Grade ([1]; 1.25% (wt/vol), 14 day): 4 (1000 to 10,000 colonies countable (thus 10,000 CFU/mL to 100,000 CFU/mL))
Grade ([1]; 1.25% (wt/vol), 30 day): 4 (1000 to 10,000 colonies countable (thus 10,000 CFU/mL to 100,000 CFU/mL))
Grade ([1]; 2.5% (wt/vol), 3 day): 2 (52 to 100 colonies counted (thus 520 to 1000 CFU/mL))
Grade ([1]; 2.5% (wt/vol), 14 day): 1 (0 to 51 colonies counted (thus 10 to 510 CFU/mL based on 0.1-mL sample))
Grade ([1]; 2.5% (wt/vol), 30 day): 1 (0 to 51 colonies counted (thus 10 to 510 CFU/mL based on 0.1-mL sample))
Grade ([1]; 5.0% (wt/vol), 3 day): 0
Grade ([1]; 5.0% (wt/vol), 14 day): 0
Grade ([1]; 5.0% (wt/vol), 30 day): 0
Grade ([2]; 0.5% (wt/vol), 3 day): 4 (1000 to 10,000 colonies countable (thus 10,000 CFU/mL to 100,000 CFU/mL))
Grade ([2]; 0.5% (wt/vol), 14 day): 4 (1000 to 10,000 colonies countable (thus 10,000 CFU/mL to 100,000 CFU/mL))
Grade ([2]; 0.5% (wt/vol), 30 day): 4 (1000 to 10,000 colonies countable (thus 10,000 CFU/mL to 100,000 CFU/mL))
Grade ([2]; 1.25% (wt/vol), 3 day): 3 (100 to 1000 colonies (thus 1000 to 10,000 CFU/mL))
Grade ([2]; 1.25% (wt/vol), 14 day): 2 (52 to 100 colonies counted (thus 520 to 1000 CFU/mL))
Grade ([2]; 1.25% (wt/vol), 30 day): 4 (1000 to 10,000 colonies countable (thus 10,000 CFU/mL to 100,000 CFU/mL))
Grade ([2]; 2.5% (wt/vol), 3 day): 1 (0 to 51 colonies counted (thus 10 to 510 CFU/mL based on 0.1-mL sample))
Grade ([2]; 2.5% (wt/vol), 14 day): 0
Grade ([2]; 2.5% (wt/vol), 30 day): 0
Grade ([2]; 5.0% (wt/vol), 3 day): 1 (0 to 51 colonies counted (thus 10 to 510 CFU/mL based on 0.1-mL sample))
Grade ([2]; 5.0% (wt/vol), 14 day): 0
Grade ([2]; 5.0% (wt/vol), 30 day): 0
Grade ([3]; 0.5% (wt/vol), 3 day): 5 (More than 10,000 colonies estimated (thus more than 100,000 CFU/mL))
Grade ([3]; 0.5% (wt/vol), 14 day): 5 (More than 10,000 colonies estimated (thus more than 100,000 CFU/mL))
Grade ([3]; 0.5% (wt/vol), 30 day): 5 (More than 10,000 colonies estimated (thus more than 100,000 CFU/mL))
Grade ([3]; 1.25% (wt/vol), 3 day): 4 (1000 to 10,000 colonies countable (thus 10,000 CFU/mL to 100,000 CFU/mL))
Grade ([3]; 1.25% (wt/vol), 14 day): 4 (1000 to 10,000 colonies countable (thus 10,000 CFU/mL to 100,000 CFU/mL))
Grade ([3]; 1.25% (wt/vol), 30 day): 4 (1000 to 10,000 colonies countable (thus 10,000 CFU/mL to 100,000 CFU/mL))
Grade ([3]; 2.5% (wt/vol), 3 day): 4 (1000 to 10,000 colonies countable (thus 10,000 CFU/mL to 100,000 CFU/mL))
Grade ([3]; 2.5% (wt/vol), 14 day): 4 (1000 to 10,000 colonies countable (thus 10,000 CFU/mL to 100,000 CFU/mL))
Grade ([3]; 2.5% (wt/vol), 30 day): 4 (1000 to 10,000 colonies countable (thus 10,000 CFU/mL to 100,000 CFU/mL))
Grade ([3]; 5.0% (wt/vol), 3 day): 0
Grade ([3]; 5.0% (wt/vol), 14 day): 0
Grade ([3]; 5.0% (wt/vol), 30 day): 0
S. mutans growth grade, 3 day ([4]; 0.5% weight/volume): 4 (1000 to 10,000 colonies countable (thus 10,000 CFU/mL to 100,000 CFU/mL))
S. mutans growth grade, 13 day ([4]; 0.5% weight/volume): 4 (1000 to 10,000 colonies countable (thus 10,000 CFU/mL to 100,000 CFU/mL))
S. mutans growth grade, 30 day ([4]; 0.5% weight/volume): 4 (1000 to 10,000 colonies countable (thus 10,000 CFU/mL to 100,000 CFU/mL))
S. mutans growth grade, 3 day ([4]; 1.25% weight/volume): 4 (1000 to 10,000 colonies countable (thus 10,000 CFU/mL to 100,000 CFU/mL))
S. mutans growth grade, 13 day ([4]; 1.25% weight/volume): 4 (1000 to 10,000 colonies countable (thus 10,000 CFU/mL to 100,000 CFU/mL))
S. mutans growth grade, 30 day ([4]; 1.25% weight/volume): 4 (1000 to 10,000 colonies countable (thus 10,000 CFU/mL to 100,000 CFU/mL))
S. mutans growth grade, 3 day ([4]; 2.5% weight/volume): 3 (100 to 1000 colonies (thus 1000 to 10,000 CFU/mL))
S. mutans growth grade, 13 day ([4]; 2.5% weight/volume): 1 (0 to 51 colonies counted (thus 10 to 510 CFU/mL based on 0.1-mL sample))
S. mutans growth grade, 30 day ([4]; 2.5% weight/volume): 0
S. mutans growth grade, 3 day ([4]; 5.0% weight/volume): 0
S. mutans growth grade, 13 day ([4]; 5.0% weight/volume): 0
S. mutans growth grade, 30 day ([4]; 5.0% weight/volume): 0
Aeromonas sp growth grade, 3 day (Aeromonas sp. Wild type; 0.5% weight/volume): 5 (More than 10,000 colonies estimated (thus more than 100,000 CFU/mL))
Aeromonas sp growth grade, 14 day (Aeromonas sp. Wild type; 0.5% weight/volume): 4 (1000 to 10,000 colonies countable (thus 10,000 CFU/mL to 100,000 CFU/mL))
Aeromonas sp growth grade, 30 day (Aeromonas sp. Wild type; 0.5% weight/volume): 4 (1000 to 10,000 colonies countable (thus 10,000 CFU/mL to 100,000 CFU/mL))
Aeromonas sp growth grade, 3 day (Aeromonas sp. Wild type; 1.25% weight/volume): 4 (1000 to 10,000 colonies countable (thus 10,000 CFU/mL to 100,000 CFU/mL))
Aeromonas sp growth grade, 14 day (Aeromonas sp. Wild type; 1.25% weight/volume): 4 (1000 to 10,000 colonies countable (thus 10,000 CFU/mL to 100,000 CFU/mL))
Aeromonas sp growth grade, 30 day (Aeromonas sp. Wild type; 1.25% weight/volume): 4 (1000 to 10,000 colonies countable (thus 10,000 CFU/mL to 100,000 CFU/mL))
Aeromonas sp growth grade, 3 day (Aeromonas sp. Wild type; 2.5% weight/volume): 4 (1000 to 10,000 colonies countable (thus 10,000 CFU/mL to 100,000 CFU/mL))
Aeromonas sp growth grade, 14 day (Aeromonas sp. Wild type; 2.5% weight/volume): 2 (52 to 100 colonies counted (thus 520 to 1000 CFU/mL))
Aeromonas sp growth grade, 30 day (Aeromonas sp. Wild type; 2.5% weight/volume): 3 (100 to 1000 colonies (thus 1000 to 10,000 CFU/mL))
Aeromonas sp growth grade, 3 day (Aeromonas sp. Wild type; 5.0% weight/volume): 2 (52 to 100 colonies counted (thus 520 to 1000 CFU/mL))
Aeromonas sp growth grade, 14 day (Aeromonas sp. Wild type; 5.0% weight/volume): 0
Aeromonas sp growth grade, 30 day (Aeromonas sp. Wild type; 5.0% weight/volume): 0
Grade ([5]; 0.5% (wt/vol), 3 day): 5
Grade ([5]; 0.5% (wt/vol), 13 day): 5
Grade ([5]; 0.5% (wt/vol), 30 day): 5
Grade ([5]; 1.25% (wt/vol), 3 day): 4
Grade ([5]; 1.25% (wt/vol), 13 day): 4
Grade ([5]; 1.25% (wt/vol), 30 day): 4
Grade ([5]; 2.5% (wt/vol), 3 day): 3
Grade ([5]; 2.5% (wt/vol), 13 day): 2 (Countable (10 to 100 colonies))
Grade ([5]; 2.5% (wt/vol), 30 day): 3
Grade ([5]; 5.0% (wt/vol), 3 day): 2 (Countable (10 to 100 colonies))
Grade ([5]; 5.0% (wt/vol), 13 day): 0
Grade ([5]; 5.0% (wt/vol), 30 day): 0
